According to patent US11939330B1, “Pyrido[3,4-b]indole-6-carboxylic acid compounds as CK2 inhibitors” (KING FAISAL UNIVERSITY, priority 2023, dated 2024):

Experiments:
A375 (melanoma) = assay: In vitro cytotoxic activity (MTT) assay, A375; format: cell-based; conditions: Homo sapiens, A-375; A375 (melanoma) cells, exposed for 96 hours; read-out: IC50, concentration of compound eliciting a 50% inhibition of cell proliferation
Protocol: (§1) Compounds 1-12 were screened for their in vitro cytotoxic activity utilizing a 3-(4,5-dimethyl-thiazol-2-yl)-2,5-diphenyltetrazolium bromide (MTT) assay against selected cancer human cell lines consisting of PC3 (prostate), HCT116 (colon), A375 (melanoma), H1299 (lung), MIAPaCa-2 (pancreas), HL60 (leukemia), MCF7 (breast), MDA-MB-231 (breast) (T. Mosmann, J. Immunol. Meth., 1983, 65, 55-63). The cells were cultured at 37° C. in RMPI1640 medium supplemented with 10% fetal bovine serum, 50 IU/mL penicillin, and 50 μg/mL streptomycin in a 5% CO2 incubator. All cells were sub-cultured 3 times/week by trypsinisation. Viable cells were seeded and allowed to adhere for 12 h before a test drug was added in 96-well plates at an initial density of 1.0×10^5 cells/mL. Tumour cell lines were separately exposed to various concentrations of the tested compounds followed by incubation at a temperature of 37° C. during 96 h inside a medium of fresh RMPI 1640. Cells were subsequently incubated at 37° C. using MTT at 0.5 mg/mL during 4 h. After removal of supernatant, formazan crystals were dissolved in isopropanol and the optical density was measured at 570 nm. CX-4945 was used as a positive control.

recombinant human CK2 = target: T1, recombinant human CK2 (Homo sapiens, UniProt P68400); assay: CK2 Kinase Assay (33P-ATP, substrate peptide RRRDDDSDDD); format: biochemical; conditions: final ATP concentration 15 μM, 10 min at 30° C.; read-out: protein kinase CK2 activity IC50
T1 construct: purchased Millipore
Protocol: CK2 Kinase Assay was conducted using the protocol as described in Pierre F. et al; J. Med. Chem. 2011, 54, 635-654. The tested compounds in aqueous solution were added at a volume of 10 μL to a reaction mixture comprising 10 μL of assay dilution buffer (ADB; 20 mM MOPS, pH 7.2, 25 mM β-glycerol phosphate, 5 mM EGTA, 1 mM sodium orthovanadate, and 1 mM dithiothreitol), 10 μL of substrate peptide (RRRDDDSDDD, dissolved in ADB at a concentration of 1 mM), 10 μL of recombinant human CK2 (RROP-holoenzyme, 25 ng dissolved in ADB; Millipore). Reactions were initiated by the addition of 10 μL of ATP solution (90% 75 mMMgCl2, 75 μM ATP (final ATP concentration:15 μM) dissolved in ADB; 10% [7-33P] ATP (stock 1 mCi/100 L; 3000 Ci/mmol (Perkin-Elmer) and maintained for 10 min at 30° C. The reactions were quenched with 100 μL of 0.75% phosphoric acid and then transferred to and filtered through a phosphor cellulose filter plate (Millipore). After washing each well five times with 0.75% phosphoric acid, the plate was dried under vacuum for 5 min and, following the addition of 15 μL of scintillation fluid to each well, the residual radioactivity was measured using a Wallac […] counter. The IC50 values were derived from eight concentrations of test inhibitors.

MDA-MB-231 (breast) = assay: In vitro cytotoxic activity (MTT) assay, MDA-MB-231; format: cell-based; conditions: Homo sapiens; MDA-MB-231 (breast) cells, exposed for 96 hours; read-out: IC50, concentration of compound eliciting a 50% inhibition of cell proliferation
Protocol: as §1

MIAPaCa-2 (pancreas) = assay: In vitro cytotoxic activity (MTT) assay, MIAPaCa-2; format: cell-based; conditions: Homo sapiens, MIA PaCa-2; MIAPaCa-2 (pancreas) cells, exposed for 96 hours; read-out: IC50, concentration of compound eliciting a 50% inhibition of cell proliferation
Protocol: as §1

H1299 (lung) = assay: In vitro cytotoxic activity (MTT) assay, H1299; format: cell-based; conditions: Homo sapiens, NCI-H1299; H1299 (lung) cells, exposed for 96 hours; read-out: IC50, concentration of compound eliciting a 50% inhibition of cell proliferation
Protocol: as §1

HL60 (leukemia) = assay: In vitro cytotoxic activity (MTT) assay, HL60; format: cell-based; conditions: Homo sapiens, HL-60; HL60 (leukemia) cells, exposed for 96 hours; read-out: IC50, concentration of compound eliciting a 50% inhibition of cell proliferation
Protocol: as §1

HCT116 (colon) = assay: In vitro cytotoxic activity (MTT) assay, HCT116; format: cell-based; conditions: Homo sapiens, HCT-116; HCT116 (colon) cells, exposed for 96 hours; read-out: IC50, concentration of compound eliciting a 50% inhibition of cell proliferation
Protocol: as §1

MCF7 (breast) = assay: In vitro cytotoxic activity (MTT) assay, MCF7; format: cell-based; conditions: Homo sapiens; MCF7 (breast) cells, exposed for 96 hours; read-out: IC50, concentration of compound eliciting a 50% inhibition of cell proliferation
Protocol: as §1

PC3 (prostate) = assay: In vitro cytotoxic activity (MTT) assay, PC3; format: cell-based; conditions: Homo sapiens, Prostate cell; PC3 (prostate) cells, exposed for 96 hours; read-out: IC50, concentration of compound eliciting a 50% inhibition of cell proliferation
Protocol: as §1

T1 sequence (P68400 whole entry): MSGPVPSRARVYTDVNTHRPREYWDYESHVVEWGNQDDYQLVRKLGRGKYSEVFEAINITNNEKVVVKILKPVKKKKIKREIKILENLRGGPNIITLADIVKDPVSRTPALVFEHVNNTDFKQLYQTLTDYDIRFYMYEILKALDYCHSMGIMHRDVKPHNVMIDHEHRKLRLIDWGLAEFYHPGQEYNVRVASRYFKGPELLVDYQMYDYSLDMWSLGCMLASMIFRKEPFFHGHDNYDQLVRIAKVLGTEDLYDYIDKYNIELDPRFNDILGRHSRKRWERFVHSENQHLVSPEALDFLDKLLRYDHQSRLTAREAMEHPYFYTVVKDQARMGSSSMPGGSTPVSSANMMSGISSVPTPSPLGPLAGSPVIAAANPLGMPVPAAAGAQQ
T1 sequence (P67870 whole entry partner): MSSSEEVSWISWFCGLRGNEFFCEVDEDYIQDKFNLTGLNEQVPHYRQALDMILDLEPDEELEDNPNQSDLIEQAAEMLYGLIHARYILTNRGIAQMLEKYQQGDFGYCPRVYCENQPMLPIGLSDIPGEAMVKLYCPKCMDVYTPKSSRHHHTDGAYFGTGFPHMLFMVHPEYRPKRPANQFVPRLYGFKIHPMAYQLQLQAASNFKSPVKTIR

Question: Which results are given for `O=C(O)c1ccc2c(c1)c1ccncc1n2C(=O)c1cccc(Cl)c1` [Compound 7, 9-(3-chlorobenzoyl)-9H-pyrido[3,4-b]indole-6-carboxylic acid]?
Answer: IC50 (A375 (melanoma)): 3.9 µM; IC50 (recombinant human CK2): 0.051 µM; IC50 (MDA-MB-231 (breast)): 3.9 µM; IC50 (MIAPaCa-2 (pancreas)): 1.9 µM; IC50 (H1299 (lung)): 1.5 µM; IC50 (HL60 (leukemia)): 1.8 µM; IC50 (HCT116 (colon)): 2.4 µM; IC50 (MCF7 (breast)): 4.7 µM; IC50 (PC3 (prostate)): 1.6 µM
